Earlier results in US20250120913A1, “STABLE QUERCETIN NANOSUSPENSIONS” (Sirona Biosciences Inc., priority 2023, published 2025).

Conditions: depending on the pH level

Question: For `O=c1c(O)c(-c2ccc(O)c(O)c2)oc2cc(O)cc(O)c12` [Quercetin], which aqueous solubility is on record?
Answer: 1.5 to 12.5 µg/mL
